Laboratory results published in ChEMBL document CHEMBL1158299, “Effects on cultured neonatal mouse calvaria of the flavonoids isolated from Boerhaavia repens” (1996).
The source made the active and inactive calls. The calls are words filed in the database; no cut-off is given here.

What was measured:
Conditions in all cases: Bone element
[1] = tested on: Bone; assay: Inhibition of bone resorption in mouse parietal bone culture assessed as 45Ca2 release into culture medium at 200 uM after 4 to 6 days by liquid scintillation counting; format: functional
[2] = tested on: Bone; assay: Inhibition of PTH-induced bone resorption in mouse parietal bone culture assessed as 45Ca2 release into culture medium at 200 uM after 4 to 6 days by liquid scintillation counting; format: functional
[3] = tested on: Bone; assay: Inhibition of bone resorption in mouse parietal bone culture assessed as 45Ca2 release into culture medium at 200 uM after 0 to 3 days by liquid scintillation counting; format: functional
[4] = tested on: Bone; assay: Inhibition of PTH-induced bone resorption in mouse parietal bone culture assessed as 45Ca2 release into culture medium at 200 uM by liquid scintillation counting; format: functional, tissue-based

SMILES | inhibition at 200 µM [1] | inhibition at 200 µM [2] | inhibition at 200 µM [3] | Activity [4]
COc1cc2oc(-c3ccc(O)cc3)c(O[C@@H]3O[C@H](CO)[C@H](O)[C@H](O)[C@H]3O)c(=O)c2c(O)c1OC | 23.1% | 55.3% | 20.6% | 
COc1c(O)cc2oc(-c3ccc(O)cc3)c(O[C@@H]3O[C@H](CO[C@@H]4O[C@@H](C)[C@H](O)[C@@H](O)[C@H]4O)[C@H](O)[C@H](O)[C@H]3O)c(=O)c2c1O |  |  |  | inactive
COc1cc2oc(-c3ccc(O)cc3)c(O[C@@H]3O[C@H](CO)[C@@H](O)[C@H](O)[C@H]3O[C@@H]3O[C@H](CO)[C@H](O)[C@H](O)[C@H]3O)c(=O)c2c(O)c1OC | 38% | 60.3% | 29.1% | 
